# Test results as given in patent publication US10857209B2, “Lysosomal acid lipase and PPAR gamma ligands as immune therapies for cancer treatment” (Indiana University Research and Technology Corporation, priority 2016, dated 2020).
# Assays:
# mTOR pathway = test: Flow cytometry of mTOR pathway in gated Ly6G+CD11b+ bone marrow cells; assay type: cell-based, mouse; details: 20 μmol/L, 2 hours
# Description: For in vitro PPARγ ligand treatment, 9-HODE (Cayman Chemical Co., Ann Arbor, Mich., USA) was added into the culture medium of MDSCs to a final concentration of 20 μmol/L for 24 or 48 hours. For the study of the effect of PPARγ ligand on the mTOR signaling pathway, bone marrow cells were treated with 9-HODE (20 μmol/L) for 2 hours.
# Single cells from the bone marrow of 5-month-old lal^+/+ and lal^−/− mice were prepared as described in Qu et al., Cancer Res. 2009; 69:7252-7261. After 20 μmol/L 9-HODE treatment for 2 hours, cells were harvested, and labeled with anti-Ly6G and CD11b cell surface antibody (eBioscience) at 4° C. for 15 minutes. Cells were then fixed and permeabilized using BD Cytofix/Cytoperm Fixation/Permeabilization Kit (BD Biosciences) according to the manufacturer's instructions, and incubated with Alexa Fluor 647-conjugated anti-mTOR antibody, Alexa Fluor 488-conjugated anti-S6 antibody, Alexa Fluor 488-conjugated anti-pS6 (Ser235/236) antibody, and rabbit anti-pmTOR (Ser2448) antibody (Cell Signaling Technology, Beverly, Mass., USA) at 4° C. overnight. For anti-pmTOR antibody staining, cells were incubated with Alexa Fluor 647-conjugated anti-rabbit IgG in the following day. Cells were washed and ready for flow cytometry analysis. Mean fluorescence intensities of the proteins in the gated Ly6G^+CD11b^+ area were analyzed. For flow cytometry analysis, ≥10,000 cells were acquired and scored using a LSRII machine (BD Biosciences). Data were processed using the CellQuest software program (BD Biosciences).
# Lin− cells = test: Differentiation of bone marrow Lin− cells into Ly6G+CD11b+ cells; assay type: cell-based, mouse; details: lal−/− Lin− cells; 10 μmol/L, 5 days; vs ethanol
# Description: Lineage-negative (Lin−) cells were isolated from the bone marrow by removing blood lineage marker-positive cells with an immunomagnetic microbead technique. Briefly, bone marrow cells were first incubated with a cocktail of biotin-conjugated antibodies against lineage specific antigens: CD11b, GR-1, B220, TER-119, and CD3ε (Mouse Lineage Panel Kit, BD Pharmingen, San Diego, Calif., USA) at 4° C. for 15 minutes. After washed with PBS, cells were then incubated with anti-biotin microbeads at 4° C. for another 15 minutes. Subsequently, cells were subjected to magnetic bead sorting according to the manufacturer's instructions (Miltenyi Biotec.). The resulting Lin− cells were cultured in RPMI1640 with 10% FBS. Five days later, Ly6G^+CD11b^+ cells derived from Lin− cells were analyzed by flow cytometry analysis.
# B16 melanoma cells = test: B16 melanoma growth and metastasis in myeloid-specific hLAL Tg/KO triple mice; assay type: in vivo, mouse; details: myeloid-specific expression
# Text: lal^+/+ and lal^−/− mice of the FVBN background were bred in house. c-fms-rtTA/(TetO)7-CMV-hLAL; lal^−/− (Tg/KO) triple mice of the FVBN background is a previously generated triple transgenic mouse model with myeloid-specific doxycycline-inducible expression of wild-type human LAL (hLAL) in lal^−/− mice under the control of the c-fms promoter. All scientific protocols involving the use of animals have been approved by the Institutional Animal Care and Use Committee of Indiana University School of Medicine and followed guidelines established by the Panel on Euthanasia of the American Veterinary Medical Association. Animals were housed under Institutional Animal Care and Use Committee-approved conditions in a secured animal facility at the Indiana University School of Medicine.
# Four-month-old lal^+/+ or lal^−/− mice were inoculated with 1×10^5 B16 melanoma cells subcutaneously into the flank region, and tumor size (length×width^2×π/6) was monitored every week for 3 weeks. For intravenous injection of B16 melanoma cells, 5×10^5 B16 melanoma cells in 200 μl PBS were injected into 4-month-old lal^+/+ or lal^−/− mice via tail vein. A pilot study was performed to determine the best ratio between MDSCs and B16 melanoma cells. For co-injection of MDSCs and B16 melanoma cells via tail vein, 2×10^6 MDSCs and 5×10^5 B16 melanoma cells were mixed and incubated at 37° C. and 5% CO2 for 30 minutes. […]
# [1] = Tissue lipid storage in LAP-Tg/KO mice (hepatocyte-specific hLAL expression); assay type: in vivo, mouse; details: hepatocyte transgenic expression in lal−/− mice (doxycycline-untreated LAP-Tg/KO)
# Text: LAP-tTA/(TetO)7-CMV-hLAL; lal^−/− (LAP-Tg/KO) triple mice of the FVB/N background was established by cross-breeding of LAP-tTA transgenic mice (Jackson's Laboratory, Bar Harbor, Me.) with a previously generated (tetO)7-CMV-hLAL transgenic mice into lal^−/− mice. This triple transgenic mouse model was hepatocyte-specific Tet-off expression of wild-type hLAL in lal^−/− mice under the control of the LAP. All scientific protocols that involved the use of animals were approved by the Institutional Animal Care and Use Committee of Indiana University School of Medicine and followed guidelines established by the Panel on Euthanasia of the American Veterinary Medical Association. Animals were housed in a secured animal facility at Indiana University School of Medicine.
# Total tissue lipids were extracted from the liver and small intestine by the Folch method (Folch et al., J Biol. Chem 1957, […]:497-509). Concentrations of CEs and TGs were determined as described in Due et al., J Lipid Res 2001, 42:489-500 and Du et al., J Immunol 2009, 182:1648-1659).
# Frozen tissue sections were prepared from the liver and intestine after a standard cryostat procedure. Tissue section slides were stained with Oil Red-O solution (0.5% in propylene glycol) in a 60° C. oven for 10 minutes and placed in 85% propylene glycol for 1 minute; slides were counter-stained in hematoxylin.
molecule,measurement,setting,value
9-hydroxyoctadecadienoic acid [9-HODE],phosphorylation of S6 (MFI),mTOR pathway; gated lal−/− Ly6G+CD11b+ cells,decreased phosphorylation of S6
same,phosphorylation of mTOR (MFI),mTOR pathway; gated lal−/− Ly6G+CD11b+ cells,decreased phosphorylation of mTOR
same,overall levels of mTOR and S6,mTOR pathway; lal−/− MDSCs,reduced the overall levels of mTOR and S6
same,Ly6G+CD11b+ cells derived from Lin− cells,Lin− cells,fewer Ly6G^+CD11b^+ cells
"hLAL: human lysosomal acid lipase expressed from a doxycycline-controlled tissue-specific transgene in lal−/− mice; never administered as a protein (protein, left off: small tags and cut ends, human lysosomal acid lipase expressed from a doxycycline-controlled tissue-specific transgene in lal−/− mice; never administered as a protein) GPKPVVFLQHGLLADSSNWVTNLANSSLGFILADAGFDVWMGNSRGNTWSRKHKTLSVSQDEFWAFSYDEMAKYDLPASINFILNKTGQEQVYYVGHSQGTTIGFIAFSQIPELAKRIKMFFALGPVASVAFCTSPMAKLGRLPDHLIKDLFGDKEFLPQSAFLKWLGTHVCTHVILKELCGNLCFLLCGFNERNLNMSRVDVYTTHSPAGTSVQNMLHWSQAVKFQKFQAFDWGSSAKNYFHYNQSYPPTYNVKDMLVPTAVWSGGHDWLADVYDVNILLTQITNLVFHESIPEWEHLDFIWGLDAPWRLYNKIINLMRKYQ",decrease of tumor volume vs untreated mice,"B16 melanoma cells; doxycycline-treated Tg/KO triple mice, B16 s.c., 2 weeks post-injection",50%
same,melanoma colonies in the lungs,"B16 melanoma cells; doxycycline-treated vs untreated Tg/KO triple mice, B16 i.v., 2 weeks",reduced number of melanoma colonies in the lungs
same,"lipid storage (cholesterol and triglyceride) in liver, spleen and small intestine",[1],completely cleaned up
